Results on five compounds are retold here after patent publication US4239768A, “Method for relieving irritable bowel syndrome symptoms” (McNeilab, Inc., priority 1978, dated 1980).

Counter-ions that a name gives are not always drawn. Like-named read-outs stand apart in the source and are kept apart here.

In the test the test system is sensitivity to distension of th colonic wall. The experiment in a line: Glass bead expulsion test (time between rectal insertion and expulsion of bead). The following applies: Mus musculus, 1 h, drug given one hour prior to glass bead insertion, ED50 = dose causing an activity index of 2. Format: in vivo, male albino mice. The text has this:
The disorder is characterized by abdominal pain, diarrhea, constipation and like symptoms caused by excessive sensitivity to distension of the bowel by the presence of intestinal gas and/or fecal material. The extent to which a compound is effective in providing relief may be determined by a test in which a glass bead is inserted into the rectum and the lapse of time between insertion and expulsion of the bead determined. Compounds which are effective in decreasing the sensitivity to distension of th colonic wall delays the expulsion of the bead. The test is carried out with male albino mice of 18-25 grams body weight using groups of five mice for each compound dose tested. The initial screen dose selected for all compounds is 50 milligrams per kilogram of body weight (mg/kg) administered orally in a volume of 0.1 milliliter per 10 grams of body weight. The control groups receive the vehicle, 0.5 percent methocel, used for both oral and intraperitoneal administration. The mice are fasted one hour before testing and the test drugs are given one hour prior to glass bead insertion. At the end of the pretreatment time, the mouse is picked up and held firmly in one hand with his abdomen facing the technician. The glass bead of 3 millimeters in diameter is positioned at the rectum and using a pinching action with a thumb and forefinger, the bead is pushed into the rectum. Then using a glass rod of 3 millimeters in diameter which has been lubricated with 0.5 percent methocel to facilitate insertion, the glass bead is pushed up into the rectum a distance of 2 centimeters using a slow gentle turning motion. The mice are timed as a group using the last mouse inserted as zero time and the number of beads expelled in a group at different timed intervals are recorded. The groups are based on timed intervals of 0 to 5 minutes, 5 to 10 minutes, 10 to 20 minutes, 20 to 40 minutes and greater than 40 minutes. They are given the activity index values of 0, 1, 2, 3 and 4, respectively. Mice who have not expelled their beads by the 40-minute cutoff time are examined for perforations. Those mice whose colons are perforated are eliminated from the group. The sum of the values divided by the number of mice or beads is termed the activity index for the drug tested. The ED50 is determined by regression lines using the method of least squares. The ED50 is arbitrarily assigned as that dose causing an activity index of 2. The results of this test employing intraperitoneal and oral administration of N-aryl-N'-(2-imidazolidinylidene)urea compounds are shown in Table I.

Setting [1] is: ip, intraperitoneal, read-out: ED50 Intraperitoneal.

The term ED50 denotes the midpoint of the dose-response relation. For the compound `Cc1cccc(C)c1NC(=O)N=C1NCCN1` [2,6-di(CH3)-.phi., N-(2,6-dimethylphenyl)-N'-(2-imidazolidinylidene)urea], the ED50 (oral, read-out: ED50 Per Os) was found to be 16 mg/kg and the ED50 under setting [1] was 12 mg/kg.
Taken in the same sequence, the figures for `Cl.O=C(N=C1NCCN1)Nc1c(Br)cccc1Br` [2,6-diBr-.phi., N-(2,6-dibromophenyl)-N'-(2-imidazolidinylidene)urea hydrochloride] were 38 mg/kg and 9 mg/kg.
For `Cl.O=C(N=C1NCCN1)Nc1c(Cl)cccc1Cl` [2,6-diCl-.phi., N-(2,6-Dichlorophenyl)-N'-(2-imidazolidinylidene)urea Hydrochloride], the ED50 is 13.7 mg/kg (oral, read-out: ED50 Per Os) and 7 mg/kg under setting [1].
Regarding `CCc1cccc(C)c1NC(=O)N=C1NCCN1` [2-C2 H5,6-CH3 -.phi., N-(2-Ethyl-6-methylphenyl)-N'-(2-imidazolidinylidene)urea. Fumarate (3:2)], the ED50 runs as follows: (oral, read-out: ED50 Per Os) 121 mg/kg; under setting [1], 43 mg/kg.
In the case of `Cc1cccc(Cl)c1NC(=O)N=C1NCCN1.Cl` [2-Cl,6-CH3 -.phi., N-(2-chloro-6-methylphenyl)-N'-(2-imidazolidinylidene)urea hydrochloride], the ED50 (oral, read-out: ED50 Per Os) is 35 mg/kg and the median effective dose (ED50) under setting [1] was found to be 8 mg/kg.
